Each structure is given as a SMILES string. Read-outs that look alike come from different tables or passages of the source.

The values that follow come from US20240228482A1, “COMPOUNDS, COMPOSITIONS AND METHODS OF TREATING CANCER” (HOTSPOT THERAPEUTICS, INC., priority 2021, published 2024).

The test has as its target T1, CBL-B (Homo sapiens, UniProt Q13191).
T1 construct: GST
Nature of the test: CBL-B TR-FRET IC50 screening (E1/E2 ubiquitination, Biotin-Ubiquitin, Anti GST-Tb donor / Streptavidin-d2 acceptor). In kind it is biochemical. (In general: In TR-FRET formats the signal depends on donor and acceptor labels being close together.)

Where [1] appears, read: CBL-B 10 nM final, 11-point titration from 100 uM, binned A-F, read-out: CBL-B TR-FRET activity IC50.
Setting [2] is: second part of Table 2 (head 'Patent Cmpd No / Updated Activity'), same CBL-B TR-FRET IC50 bins A-F, read-out: Updated Activity.

T1 sequence (Q13191 whole entry): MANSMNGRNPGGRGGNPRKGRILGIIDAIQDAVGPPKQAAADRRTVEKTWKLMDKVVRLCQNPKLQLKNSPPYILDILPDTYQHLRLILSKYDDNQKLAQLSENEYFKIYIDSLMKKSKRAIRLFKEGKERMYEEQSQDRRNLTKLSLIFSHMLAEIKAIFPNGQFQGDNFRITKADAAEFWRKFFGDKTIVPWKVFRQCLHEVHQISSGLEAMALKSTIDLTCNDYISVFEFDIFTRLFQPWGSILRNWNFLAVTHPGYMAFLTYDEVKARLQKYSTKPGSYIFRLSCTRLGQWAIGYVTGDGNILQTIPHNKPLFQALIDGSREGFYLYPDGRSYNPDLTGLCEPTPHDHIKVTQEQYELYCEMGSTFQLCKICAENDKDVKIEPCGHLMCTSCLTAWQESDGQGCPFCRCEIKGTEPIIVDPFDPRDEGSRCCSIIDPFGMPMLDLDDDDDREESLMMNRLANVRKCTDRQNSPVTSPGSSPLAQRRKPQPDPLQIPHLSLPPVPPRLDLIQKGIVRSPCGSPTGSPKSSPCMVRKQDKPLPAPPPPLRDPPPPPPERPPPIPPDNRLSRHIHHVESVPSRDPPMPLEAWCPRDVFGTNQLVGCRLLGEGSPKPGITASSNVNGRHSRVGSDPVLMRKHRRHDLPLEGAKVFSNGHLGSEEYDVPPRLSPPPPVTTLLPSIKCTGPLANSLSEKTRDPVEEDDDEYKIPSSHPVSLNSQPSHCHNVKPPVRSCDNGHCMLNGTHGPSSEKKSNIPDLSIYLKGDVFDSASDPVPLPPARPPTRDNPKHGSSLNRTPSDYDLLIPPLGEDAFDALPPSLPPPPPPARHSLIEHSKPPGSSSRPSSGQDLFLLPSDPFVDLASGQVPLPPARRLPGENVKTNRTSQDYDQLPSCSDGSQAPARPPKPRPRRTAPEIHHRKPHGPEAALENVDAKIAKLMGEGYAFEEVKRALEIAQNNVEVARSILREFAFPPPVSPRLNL

As for `Cn1cnnc1[C@@H](c1cccc(-n2cc3c(C(F)(F)F)cc(CN4CCO[C@H](C(F)(F)F)C4)cn3c2=O)c1)C1CCC1` [Compound 321], under setting [1], the IC50 was below 0.1 µM.

Turning to `Cn1cnnc1[C@@H](c1cccc(-n2cc3c(C(F)(F)F)cc(CNCC4COC4)cn3c2=O)c1)C1CCC1` [Compound 322], the IC50 under setting [1] is below 0.1 µM.

Regarding `CN(Cc1cc(C(F)(F)F)c2cn(-c3cccc([C@H](c4nncn4C)C4CCC4)c3)c(=O)n2c1)C1COC1` [Compound 323], under setting [1], the IC50 is below 0.1 µM.

As for `Cn1cnnc1[C@@H](c1cccc(-n2cc3c(C(F)(F)F)cc(CNC4COC4)cn3c2=O)c1)C1CCC1` [Compound 324], the IC50 under setting [1] was below 0.1 µM.

As to `CN(C)C(=O)C1CN(Cc2cc(C(F)(F)F)c3cn(-c4cccc([C@H](c5nncn5C)C5CCC5)c4)c(=O)n3c2)C1` [Compound 325], the IC50 under setting [1] was below 0.1 µM.

In the case of `Cc1[nH]nnc1[C@H](c1cccc(-n2cc3c(C(F)(F)F)cc(CN4CCC[C@H](C)C4)cn3c2=O)c1)C1CCC1` [Compound 326], under setting [1], the IC50 was below 0.1 µM.

`Cc1[nH]nnc1[C@@H](c1cccc(-n2cc3c(C(F)(F)F)cc(CN4CCC[C@H](C)C4)cn3c2=O)c1)C1CCC1` [Compound 327]: under setting [1], the IC50 is below 0.1 µM.

With `O=c1n(-c2cccc([C@H](c3nncs3)C3CCC3)c2)cc2c(C(F)(F)F)cc(CN3CCC4(CC4)C3)cn12` [Compound 328], the IC50 under setting [1] was 1 to 3 µM.

For `COC1CCN(Cc2cc(C(F)(F)F)c3cn(-c4cccc([C@H](c5nncs5)C5CCC5)c4)c(=O)n3c2)CC1` [Compound 330], the IC50 under setting [1] was 0.301 to 1 µM.

`Cn1cnnc1[C@@H](c1cccc(-n2cc3c(C(F)(F)F)cc(-c4nncs4)cn3c2=O)c1)C1CCC1` [Compound 331]: under setting [1], the IC50 lay in the range of 0.301 to 1 µM.

Regarding `C[C@H]1CCCN(Cc2cc(C(F)(F)F)c3cn(-c4cccc([C@@H](CC5CC5)c5nncn5C)c4)c(=O)n3c2)C1` [Compound 332-p2], under setting [1], the IC50 was below 0.1 µM.

Regarding `C[C@H]1CCCN(Cc2cc(C(F)(F)F)c3cn(-c4cccc([C@H](CC5CC5)c5nncn5C)c4)c(=O)n3c2)C1` [Compound 332_P1], the IC50 under setting [1] was above 10 µM.

As for `O=c1n(-c2cccc([C@H](c3nncs3)C3CCC3)c2)cc2c(C(F)(F)F)cc(CN3CCC(F)CC3)cn12` [Compound 333], the IC50 under setting [1] is 0.1 to 0.3 µM.

For the compound `C[C@H]1CCCN(Cc2cc(C(F)(F)F)c3cn(-c4cccc(N(c5nncn5C)C5COC5)c4)c(=O)n3c2)C1` [Compound 334], the IC50 under setting [1] was below 0.1 µM.

As to `Cn1cnnc1[C@@H](c1cccc(-n2cc3c(C(F)(F)F)cc(CN4CC(C)(C)C4)cn3c2=O)c1)C1CCC1` [Compound 337], under setting [1], the IC50 is below 0.1 µM.

`Cn1cnnc1[C@@H](c1cccc(-n2cc3c(C(F)(F)F)cc(CN4CC(Oc5ccc(Cl)cc5)C4)cn3c2=O)c1)C1CCC1` [Compound 338]: the IC50 under setting [1] was below 0.1 µM.

Regarding `CC(=O)N1CCN(Cc2cc(C(F)(F)F)c3cn(-c4cccc([C@@H](c5nncn5C)C5CCC5)c4)c(=O)n3c2)CC1` [Compound 339_P1], the IC50 under setting [1] was below 0.1 µM.

Consider `CC(=O)N1CCN(Cc2cc(C(F)(F)F)c3cn(-c4cccc([C@H](c5nncn5C)C5CCC5)c4)c(=O)n3c2)CC1` [Compound 339_P2], for which the IC50 under setting [1] lay in the range of 1 to 3 µM.

Turning to `Cn1cnnc1[C@H](c1cccc(-n2cc3c(C(F)(F)F)cc(CN4CCN(C=O)CC4)cn3c2=O)c1)C1CCC1` [Compound 340_P1], the IC50 under setting [1] is below 0.1 µM.

`Cn1cnnc1[C@@H](c1cccc(-n2cc3c(C(F)(F)F)cc(CN4CCN(C=O)CC4)cn3c2=O)c1)C1CCC1` [Compound 340_P2]: the IC50 under setting [1] was 1 to 3 µM.

For `C[C@H]1CCCN(Cc2cc(C(F)(F)F)c3cn(-c4cccc(C5(c6nncn6C)CCC5)c4)c(=O)n3c2)C1` [Compound 341], the IC50 under setting [1] was below 0.1 µM.

Regarding `C[C@H]1CCCN(Cc2cc(C(F)(F)F)c3cn(-c4cccc(N(c5nncs5)C5CCC5)c4)c(=O)n3c2)C1` [Compound 344], the IC50 under setting [1] was above 10 µM.

Consider `Cn1cnnc1[C@@H](c1cccc(-n2cc3c(C(F)(F)F)cc(CN4CCc5ncsc5C4)cn3c2=O)c1)C1COC1` [Compound 345], for which the IC50 under setting [1] was below 0.1 µM.

On to `Cn1cnnc1[C@@H](c1cccc(-n2cc3c(C(F)(F)F)cc(CNC4CC(F)(F)C4)cn3c2=O)c1)C1CCC1` [Compound 346], for which the IC50 under setting [1] is above 10 µM.

As to `CN(Cc1cc(C(F)(F)F)c2cn(-c3cccc([C@H](c4nncn4C)C4CCC4)c3)c(=O)n2c1)CC1COC1` [Compound 347], the IC50 under setting [1] was below 0.1 µM.

In the case of `CC(=O)N1CC2CCC(C1)N2Cc1cc(C(F)(F)F)c2cn(-c3cccc([C@H](c4nncn4C)C4CCC4)c3)c(=O)n2c1` [Compound 348], the IC50 under setting [1] lay within 0.1 to 0.3 µM.

Turning to `CC(=O)N1C2CCC1CN(Cc1cc(C(F)(F)F)c3cn(-c4cccc([C@H](c5nncn5C)C5CCC5)c4)c(=O)n3c1)C2` [Compound 349], the IC50 under setting [1] is below 0.1 µM.

For the compound `CC1CCCN(Cc2cc(C(F)(F)F)c3cn(-c4cccc([C@H](c5nncn5C)C5CCC5)c4)c(=O)n3c2)CC1` (stereo partly drawn) [Compound 350], under setting [1], the IC50 fell in the range of 0.1 to 0.3 µM.

For the compound `COC(=O)N1CCN(Cc2cc(C(F)(F)F)c3cn(-c4cccc([C@@H](c5nncn5C)C5CCC5)c4)c(=O)n3c2)CC1` [Compound 351_P1], under setting [1], the IC50 was 1 to 3 µM.

In the case of `COC(=O)N1CCN(Cc2cc(C(F)(F)F)c3cn(-c4cccc([C@H](c5nncn5C)C5CCC5)c4)c(=O)n3c2)CC1` [Compound 351_P2], the IC50 under setting [1] was below 0.1 µM.

In the case of `C[C@H]1CCCN(Cc2cc(C(F)(F)F)c3cn(-c4cccc([C@H](CC5CCC5)c5nncn5C)c4)c(=O)n3c2)C1` [Compound 352_P1], the IC50 under setting [1] was above 10 µM.

Consider `C[C@H]1CCCN(Cc2cc(C(F)(F)F)c3cn(-c4cccc([C@@H](CC5CCC5)c5nncn5C)c4)c(=O)n3c2)C1` [Compound 352_P2], for which the IC50 under setting [1] lay in the range of 0.1 to 0.3 µM.

Take `Cn1cnnc1[C@@H](c1cccc(-n2cc3c(C(F)(F)F)cc(CN4Cc5ncsc5C4)cn3c2=O)c1)C1CCC1` [Compound 357]: the IC50 under setting [1] is below 0.1 µM.

Consider `C[C@H]1CCCCN1Cc1cc(C(F)(F)F)c2cn(-c3cccc([C@@H](c4nncn4C)C4CCC4)c3)c(=O)n2c1` [Compound 362_P1], for which the IC50 under setting [1] was below 0.1 µM.

As to `C[C@H]1CCCCN1Cc1cc(C(F)(F)F)c2cn(-c3cccc([C@H](c4nncn4C)C4CCC4)c3)c(=O)n2c1` [Compound 362_P2], the IC50 under setting [1] lay within 0.1 to 0.3 µM.

`C[C@@H]1CCCCN1Cc1cc(C(F)(F)F)c2cn(-c3cccc([C@@H](c4nncn4C)C4CCC4)c3)c(=O)n2c1` [Compound 363_P1]: under setting [1], the IC50 was above 10 µM.

Turning to `C[C@@H]1CCCCN1Cc1cc(C(F)(F)F)c2cn(-c3cccc([C@H](c4nncn4C)C4CCC4)c3)c(=O)n2c1` [Compound 363_P2], the IC50 under setting [1] is below 0.1 µM.

For `CN1CCN(Cc2cc(C(F)(F)F)c3cn(-c4cccc([C@@H](c5nncn5C)C5CCC5)c4)c(=O)n3c2)CC1=O` [Compound 364_P1], the IC50 under setting [1] was in the range of 0.301 to 1 µM.

Turning to `CN1CCN(Cc2cc(C(F)(F)F)c3cn(-c4cccc([C@H](c5nncn5C)C5CCC5)c4)c(=O)n3c2)CC1=O` [Compound 364_P2], the IC50 under setting [1] is below 0.1 µM.

`CN1CC2CCC(C1)N2c1cc(C(F)(F)F)c2cn(-c3cccc([C@H](c4nncn4C)C4CCC4)c3)c(=O)n2c1` [Compound 373]: the IC50 under setting [1] fell in the range of 0.1 to 0.3 µM.

For the compound `CN1C2CCC1CN(c1cc(C(F)(F)F)c3cn(-c4cccc([C@H](c5nncn5C)C5CCC5)c4)c(=O)n3c1)C2` [Compound 374], under setting [1], the IC50 was in the range of 0.301 to 1 µM.

As for `COCCN(c1cccc(-n2cc3c(C(F)(F)F)cc(CN4CCC[C@H](C)C4)cn3c2=O)c1)c1nncn1C` [Compound 375], the IC50 under setting [1] lay within 0.1 to 0.3 µM.

Turning to `CC1CCN(Cc2cc(C(F)(F)F)c3cn(-c4cccc([C@H](c5nncn5C)C5CCC5)c4)c(=O)n3c2)CC1` [Compound 376], the IC50 under setting [1] was below 0.1 µM.

In the case of `CN(C)C(=O)C1CCN(Cc2cc(C(F)(F)F)c3cn(-c4cccc([C@H](c5nncn5C)C5CCC5)c4)c(=O)n3c2)CC1` [Compound 377], the IC50 under setting [1] was below 0.1 µM.

Consider `Cn1cnnc1[C@@H](c1cccc(-n2cc3c(C(F)(F)F)cc(CN4CCS(=O)(=O)CC4)cn3c2=O)c1)C1CCC1` [Compound 378], for which the IC50 under setting [1] is below 0.1 µM.

`C[C@H]1CCCN(C(=O)c2cc(C(F)(F)F)c3cn(-c4cccc([C@H](c5nncn5C)C5CCC5)c4)c(=O)n3c2)C1` [Compound 379]: the IC50 under setting [1] was below 0.1 µM.

Turning to `C[C@H]1CCCN1Cc1cc(C(F)(F)F)c2cn(-c3cccc([C@@H](c4nncn4C)C4CCC4)c3)c(=O)n2c1` [Compound 380_P1], under setting [1], the IC50 was 1 to 3 µM.

For the compound `C[C@H]1CCCN1Cc1cc(C(F)(F)F)c2cn(-c3cccc([C@H](c4nncn4C)C4CCC4)c3)c(=O)n2c1` [Compound 380_P2], the IC50 under setting [1] was below 0.1 µM.

With `C[C@@H]1CCCN1Cc1cc(C(F)(F)F)c2cn(-c3cccc([C@@H](c4nncn4C)C4CCC4)c3)c(=O)n2c1` [Compound 381_P1], under setting [1], the IC50 was 1 to 3 µM.

As to `C[C@@H]1CCCN1Cc1cc(C(F)(F)F)c2cn(-c3cccc([C@H](c4nncn4C)C4CCC4)c3)c(=O)n2c1` [Compound 381_P2], the IC50 under setting [1] is below 0.1 µM.

For `COC[C@@H]1CCCN1Cc1cc(C(F)(F)F)c2cn(-c3cccc([C@@H](c4nncn4C)C4CCC4)c3)c(=O)n2c1` [Compound 382_P1], the IC50 under setting [1] was below 0.1 µM.

On to `COC[C@@H]1CCCN1Cc1cc(C(F)(F)F)c2cn(-c3cccc([C@H](c4nncn4C)C4CCC4)c3)c(=O)n2c1` [Compound 382_P2], for which the IC50 under setting [1] fell in the range of 1 to 3 µM.

As for `COC(=O)N1CCC(c2cc(C(F)(F)F)c3cn(-c4cccc([C@H](c5nncn5C)C5CCC5)c4)c(=O)n3c2)CC1` [Compound 395], the IC50 under setting [2] is 0.1 to 0.3 µM.

As for `CC(=O)N1CCC(c2cc(C(F)(F)F)c3cn(-c4cccc([C@H](c5nncn5C)C5CCC5)c4)c(=O)n3c2)CC1` [Compound 398], the IC50 under setting [2] is below 0.1 µM.

On to `Cn1cnnc1[C@H](c1cccc(-n2cc3c(C(F)(F)F)cccn3c2=O)c1)C1CCC1` [Compound 401_P1], for which the IC50 under setting [2] is below 0.1 µM.

Consider `Cn1cnnc1[C@@H](c1cccc(-n2cc3c(C(F)(F)F)cccn3c2=O)c1)C1CCC1` [Compound 401_P2], for which the IC50 under setting [2] is above 10 µM.

For the compound `C[C@@H]1CN(Cc2cc(C(F)(F)F)c3cn(-c4cccc([C@H](CC5CCC5)c5nncn5C)c4)c(=O)n3c2)CCO1` [Compound 402], under setting [2], the IC50 was above 10 µM.
